What was measured:
[1] = target: T1, hPPARα ligand binding domain (GST-hPPARα LBD) (Homo sapiens, UniProt Q07869); experiment: PPARα functional binding assay (CARLA, TR-FRET); format: biochemical; conditions: SRC-1 peptide recruitment, 3 hours at RT, read-out: EC50 in the PPARα receptor binding assay
T1 construct: made in house; host or cells: E. coli BL21(DE3), pGEX vector
T1 sequence (Q07869 167-468): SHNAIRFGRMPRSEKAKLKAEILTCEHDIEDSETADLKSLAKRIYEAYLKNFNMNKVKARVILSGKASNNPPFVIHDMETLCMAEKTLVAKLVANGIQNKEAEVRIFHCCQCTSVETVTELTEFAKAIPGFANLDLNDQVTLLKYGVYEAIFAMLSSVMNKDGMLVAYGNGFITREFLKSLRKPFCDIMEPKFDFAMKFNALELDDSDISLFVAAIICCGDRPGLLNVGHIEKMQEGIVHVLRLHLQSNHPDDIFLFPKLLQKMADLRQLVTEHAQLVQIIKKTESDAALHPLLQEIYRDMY
Method: (§1) The in vitro functional binding to the PPARα, PPARδ and PPARγ receptors is determined as follows:
(§2) The functional binding assays for the PPARα, PPARδ and PPARγ receptors are a variation of the coactivator-dependent receptor ligand assay (CARLA) (see Krey et al., “Fatty Acids, Eicosanoids, and Hypolipidemic Agents Identified as Ligands of Peroxisome Proliferator-Activated Receptors by Coactivator-Dependent Receptor Ligand Assay”, Molecular Endocrinology, Vol. 11, pp. 779-791 (1997)). The present CARLA assays use a TR-FRET detection method previously reviewed (see Hemmila, “LANCE: Homogeneous Assay Plafform for HTS”, J. Biomol. Screening, Vol. 4, pp. 303-307 (1999); Mathis, “HTRF Technology”, J. Biomol. Screening, Vol. 4, pp. 309-313 (1999)). […] This brings the Eu-labeled anti-GST antibody and the strepavidin-labeled APC in close proximity, thereby facilitating fluorescence energy transfer. […] After mixing all components, the reaction mixture stands for 3 hours at RT before reading the TR-FRET (Time-Resolved Fluorescence Resonance Energy Transfer) signal on a Wallac Victor 2 plate reader (measuring the ratio of signals at […]). […]

[2] = target: T2, hPPARγ ligand binding domain (GST-hPPARγ LBD) (Homo sapiens, UniProt P37231); experiment: PPARγ functional binding assay (CARLA, TR-FRET); format: biochemical; conditions: SRC-1 peptide recruitment, 3 hours at RT, read-out: EC50 in the PPARγ receptor binding assay
T2 construct: GST-hPPARγ LBD (amino acids 175-476); made in house; host or cells: E. coli BL21(DE3), pGEX vector
T2 sequence (P37231 175-476 isoform P37231-2): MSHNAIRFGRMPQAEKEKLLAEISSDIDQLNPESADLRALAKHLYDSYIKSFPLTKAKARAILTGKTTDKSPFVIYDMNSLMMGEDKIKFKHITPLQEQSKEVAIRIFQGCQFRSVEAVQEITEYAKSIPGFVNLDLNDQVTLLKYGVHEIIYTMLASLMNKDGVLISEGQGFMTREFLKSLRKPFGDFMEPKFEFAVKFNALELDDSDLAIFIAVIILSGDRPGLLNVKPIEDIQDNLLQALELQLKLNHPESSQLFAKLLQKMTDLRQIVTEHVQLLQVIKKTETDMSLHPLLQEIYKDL
Method: as §1, §2

EC50 [1]: ~3 nM
EC50 [2]: ~1800 nM
Structure (SMILES): Cc1oc(-c2ccc(Cl)c(F)c2)nc1COc1cccc(C(C)(C)C(=O)N2CCC[C@@H]2C(=O)O)c1 [Example 9, (R)-1-(2-{3-[2-(4-Chloro-3-fluoro-phenyl)-5-methyl-oxazol-4-yl-methoxy]-phenyl}-2-methyl-propionyl)-pyrrolidine-2-carboxylic acid]

Reference: patent US7652061B2, “N-acyl nitrogen heterocycles as ligands of peroxisome proliferator-activated receptors” (Novartis A.G., priority 2003, dated 2010)
